Here are results for 39 compounds from ChEMBL document CHEMBL5154661, “Novel 2-phenyl-3-(Pyridin-2-yl) thiazolidin-4-one derivatives as potent inhibitors for proliferation of osteosarcoma cells in vitro and in vivo” (Eur J Med Chem, 2022).

For one data set, the system named is HOS-TE85. Nature of the data set: Antiproliferative activity against human MNNG/HOS cells assessed as cell growth inhibition measured after 72 hrs by CCK-8 assay. Format: functional, cell-based. To be noted: HOS-TE85, 72 h. In general terms: Tetrazolium dyes change colour on reduction, which living cells bring about.
Data set [1] can be described thus: Microsomal stability in rat liver microsomes assessed as intrinsic clearance at 0.1 uM incubated for 10 mins in presence of NADPH by LC-MS/MS analysis. Format: ADME, Microsome. Background: Liver microsomes are a subcellular fraction often used to study metabolism.
A short description of data set [2]: Microsomal stability in mouse liver microsomes assessed as intrinsic clearance at 0.1 uM incubated for 10 mins in presence of NADPH by LC-MS/MS analysis. Format: ADME, Microsome.
Data set [3] can be described thus: Kinetic solubility of compound at pH 6.8 by turbidimetry method. Format: physicochemical. Conditions: buffer, read-out: Kinetic_solubility.
Data set [4] can be described thus: Microsomal stability in human liver microsomes assessed as intrinsic clearance at 0.1 uM incubated for 10 mins in presence of NADPH by LC-MS/MS analysis. It counts as ADME, Microsome.
Data set [5] in a line: Kinetic solubility of compound at pH 7.4 by turbidimetry method. It counts as physicochemical. Conditions: buffer, read-out: Kinetic_solubility.

SMILES strings stand for the structures. ≈ marks a conversion by molar mass, not a printed value. Where only a bound is given, the exact number is not on record here.

By IC50 is commonly meant the concentration at which inhibition is half-maximal.

Regarding `COc1ccccc1N1C(=O)CSC1c1cccc(C(=O)NCCCCc2ccc(Cl)cc2)c1` (centres undefined), the half-maximal inhibitory concentration (IC50) in the data set with HOS-TE85 came out at 0.0786 µM.

Turning to `COc1ccccc1N1C(=O)CSC1c1cc(C)cc(C(=O)NCCCCc2ccccc2)c1` (centres undefined), the IC50 in the data set on HOS-TE85 was determined as 0.0162 µM.

As for `O=C(NCCCCn1cccn1)c1cccc(C2SCC(=O)N2c2ccccn2)c1` (centres undefined), the “intrinsic clearance (CLint)” value turned out to be 506 mL/min/g in data set [1], 304 mL/min/g in data set [2] and 82.1 mL/min/g in data set [4]. The IC50 with HOS-TE85 was 0.0603 µM. Moreover, the solubility kinetic in data set [3] and in data set [5] was 50 µM (≈ 21.1 µg/mL) throughout.

Turning to `CC1SC(c2cccc(C(=O)NCCCCc3ccccc3)c2)N(c2ccc(C3CC3)cc2)C1=O` (centres undefined), the “intrinsic clearance (CLint)” value in data set [1] amounted to 3129 mL/min/g; in data set [2], 3212 mL/min/g; in data set [4] it was 2013 mL/min/g. Further, the IC50 with HOS-TE85 came to 0.191 µM. The solubility kinetic in data set [3] was 10 µM (≈ 4.85 µg/mL); in data set [5], 2 µM (≈ 0.969 µg/mL).

`COc1ccccc1N1C(=O)CSC1c1cccc(C(=O)NCCCCN2CCN(C(=O)OC(C)(C)C)CC2)c1` (centres undefined): in the data set on HOS-TE85, the IC50 is more than 1 µM.

Turning to `O=C(NCCCCc1ccccc1)c1cccc(C2SCC(=O)N2c2ccc(N3CCOCC3)cc2)c1` (centres undefined), the half-inhibitory concentration (IC50) with HOS-TE85 was more than 1 µM.

Take `O=C(NCCCCc1ccccc1)c1cccc(C2SCC(=O)N2c2ccccn2)c1` (centres undefined): the “intrinsic clearance (CLint)” value is 1482 mL/min/g in data set [1], 644 mL/min/g in data set [2] and 412 mL/min/g in data set [4]. Moreover, the IC50 in the data set on HOS-TE85 stood at 0.0197 µM. Moreover, the solubility kinetic in data set [3] and in data set [5] was 20 µM (≈ 8.63 µg/mL) each time.

Turning to `CC1SC(c2cccc(C(=O)NCCCCc3ccc(Cl)cc3)c2)N(c2cccc(C3CC3)c2)C1=O` (centres undefined), in the data set with HOS-TE85, the half-inhibitory concentration (IC50) worked out at 0.932 µM.

Regarding `O=C(NCCCCn1cccn1)c1cccc(C2SCC(=O)N2c2cc(Br)ccn2)c1` (centres undefined), the half-inhibitory concentration (IC50) in the data set with HOS-TE85 stood at 0.105 µM.

In the case of `O=C(NCCc1ccccc1)c1cccc(C2SCC(=O)N2c2ccc(C3CC3)cc2)c1` (centres undefined), in the data set with HOS-TE85, the IC50 is more than 1 µM.

Regarding `O=C(NCCCCc1ccccc1)c1cccc(C2SCC(=O)N2c2ccc(C3CC3)cc2)c1` (centres undefined), the “intrinsic clearance (CLint)” value in data set [1] worked out at 2275 mL/min/g; in data set [2], 2962 mL/min/g; in data set [4], 811 mL/min/g. Besides, the half-maximal inhibitory concentration (IC50) in the data set on HOS-TE85 came out at 0.217 µM. For the same compound, the solubility kinetic in data set [3] and in data set [5] was 2 µM (≈ 0.941 µg/mL) in each case.

Consider `COc1ccccc1N1C(=O)CSC1c1cccc(C(=O)NCCCCn2cncn2)c1` (centres undefined), for which, in the data set on HOS-TE85, the IC50 is more than 1 µM.

On to `O=C(NCCCCc1ccccc1)c1cccc(C2SCC(=O)N2c2cccc(C3CC3)c2)c1` (centres undefined), for which the “intrinsic clearance (CLint)” value in data set [1] came to 3543 mL/min/g; in data set [2], 2943 mL/min/g; in data set [4] it was 2069 mL/min/g. The IC50 in the data set on HOS-TE85 was found to be 0.299 µM. Besides, the solubility kinetic in data set [3] and in data set [5] was 10 µM (≈ 4.71 µg/mL) throughout.

Take `COc1ccc(F)cc1N1C(=O)CSC1c1cccc(C(=O)NCCCCn2cccn2)c1` (centres undefined): the “intrinsic clearance (CLint)” value was 1472 mL/min/g in data set [1], 1312 mL/min/g in data set [2] and 421 mL/min/g in data set [4]. The IC50 in the data set with HOS-TE85 is 0.0973 µM. The solubility kinetic in data set [3] and in data set [5] was 50 µM (≈ 23.4 µg/mL) throughout.

Consider `CC1SC(c2cccc(C(=O)NCCCCc3ccccc3)c2)N(c2cccc(C3CC3)c2)C1=O` (centres undefined), for which the IC50 in the data set on HOS-TE85 was 0.295 µM.

Consider `O=C(NCCCCc1ccccc1)c1cccc(C2SCC(=O)N2c2cnccn2)c1` (centres undefined), for which, in the data set on HOS-TE85, the IC50 was more than 1 µM.

Regarding `CC1SC(c2cccc(C(=O)NCCCCc3ccc(Cl)cc3)c2)N(c2ccc(C3CC3)cc2)C1=O` (centres undefined), the IC50 in the data set with HOS-TE85 is more than 1 µM.

With `CCN(CC)c1ccc(N2C(=O)CSC2c2cccc(C(=O)NCCCCc3ccccc3)c2)cc1` (centres undefined), the IC50 with HOS-TE85 is more than 1 µM.

For `Cc1ccnc(N2C(=O)CS[C@H]2c2cccc(C(=O)NCCCCn3cccn3)c2)c1`, in the data set on HOS-TE85, the half-inhibitory concentration (IC50) is more than 10 µM.

With `C#Cc1cccc(N2C(=O)CSC2c2cccc(C(=O)NCCCCc3ccccc3)c2)c1` (centres undefined), the “intrinsic clearance (CLint)” value was 1818 mL/min/g in data set [1], 1903 mL/min/g in data set [2] and 751 mL/min/g in data set [4]. Moreover, the IC50 in the data set with HOS-TE85 turned out to be 0.149 µM. The solubility kinetic in data set [3] and in data set [5] was 10 µM (≈ 4.55 µg/mL) in each case.

As to `O=C(NCCCCn1cccn1)c1cccc(C2SCC(=O)N2c2cc(F)ccn2)c1` (centres undefined), the “intrinsic clearance (CLint)” value in data set [1] worked out at 1198 mL/min/g; in data set [2], 397 mL/min/g; in data set [4] it was 116.4 mL/min/g. In the data set with HOS-TE85, the IC50 amounted to 0.0332 µM. The solubility kinetic in data set [3] and in data set [5] was 50 µM (≈ 22 µg/mL) each time.

As for `CC(C)(C)c1conc1N1C(=O)CSC1c1cccc(C(=O)NCCCCc2ccccc2)c1` (centres undefined), in the data set on HOS-TE85, the concentration for half-maximal inhibition (IC50) was more than 1 µM.

Take `COc1ccccc1N1C(=O)CSC1c1cccc(C(=O)NCCCCc2cccs2)c1` (centres undefined): in the data set with HOS-TE85, the IC50 was determined as 0.046 µM.

Regarding `O=C(NCCCCn1cccn1)c1cccc(C2SCC(=O)N2c2cccnc2)c1` (centres undefined), the IC50 in the data set with HOS-TE85 was more than 1 µM.

Consider `O=C(NCCCCn1cccn1)c1cccc(C2SCC(=O)N2c2cc(Cl)ccn2)c1` (centres undefined), for which, in the data set with HOS-TE85, the IC50 was 0.0364 µM.

Take `O=C(NCCCCc1ccccc1)c1cccc(C2SCC(=O)N2c2cccc(-c3c[nH]nn3)c2)c1` (centres undefined): the entries for the “intrinsic clearance (CLint)” value in data set [1], in data set [2] and in data set [4] were 742 mL/min/g, 951 mL/min/g and 261 mL/min/g, respectively. Further, in the data set on HOS-TE85, the IC50 worked out at 0.11 µM. Also, the solubility kinetic in data set [3] and in data set [5] was 20 µM (≈ 9.95 µg/mL) in each case.

On to `O=C(NCCCCc1ccccc1)c1cc(F)cc(C2SCC(=O)N2c2ccccn2)c1` (centres undefined), for which the IC50 in the data set with HOS-TE85 was found to be 0.0142 µM.

Turning to `O=C(NCCCCc1ccccc1)c1cccc(C2SCC(=O)N2c2nccs2)c1` (centres undefined), in the data set on HOS-TE85, the IC50 is more than 1 µM.

Turning to `O=C(NCCCCn1cccn1)c1cccc(C2SCC(=O)N2c2ccncc2)c1` (centres undefined), the IC50 in the data set on HOS-TE85 was more than 1 µM.

Turning to `COc1ccccc1N1C(=O)CSC1c1cc(F)cc(C(=O)NCCCCc2ccccc2)c1` (centres undefined), the entries for the “intrinsic clearance (CLint)” value in data set [1], in data set [2] and in data set [4] were 3259 mL/min/g, 1434 mL/min/g and 2076 mL/min/g, respectively. In addition, the IC50 in the data set on HOS-TE85 was found to be 0.0409 µM. The solubility kinetic in data set [3] and in data set [5] was 10 µM (≈ 4.79 µg/mL) throughout.

Consider `CCC1(c2ccc(N3C(=O)CSC3c3cccc(C(=O)NCCCCn4cccn4)c3)cc2)CCC(=O)NC1=O` (centres undefined), for which the IC50 with HOS-TE85 was more than 1 µM.

Regarding `O=C(NCCCc1ccccc1)c1cccc(C2SCC(=O)N2c2ccc(C3CC3)cc2)c1` (centres undefined), in the data set on HOS-TE85, the IC50 was more than 1 µM.

In the case of `CCOC(=O)c1sc(N2C(=O)CSC2c2cccc(C(=O)NCCCCn3cccn3)c2)nc1C` (centres undefined), the IC50 with HOS-TE85 amounted to 0.429 µM.

Turning to `COc1ccccc1N1C(=O)CSC1c1cccc(C(=O)NCCCCn2ccc3ccccc32)c1` (centres undefined), the IC50 in the data set with HOS-TE85 is 0.286 µM.

`COc1ccccc1N1C(=O)CSC1c1cc(C(=O)NCCCCc2ccccc2)cc(C2CC2)c1` (centres undefined): the IC50 in the data set on HOS-TE85 was 0.0235 µM.

Regarding `COc1ccccc1N1C(=O)CSC1c1cccc(C(=O)NCCCCn2cccn2)c1` (centres undefined), the IC50 in the data set on HOS-TE85 is 0.0917 µM.

Regarding `O=C(NCCCCn1cccn1)c1cccc(C2SCC(=O)N2c2cccc(C3CC3)c2)c1` (centres undefined), the 50% inhibitory concentration (IC50) in the data set on HOS-TE85 turned out to be 0.298 µM.

Regarding `O=C(NCCCCc1ccccc1)c1cccc(C2SCC(=O)N2c2ccc(-c3ccccc3)cc2)c1` (centres undefined), the IC50 with HOS-TE85 was more than 1 µM.

With `COc1ccccc1N1C(=O)CSC1c1cccc(C(=O)NCCCCN2C(=O)C=CC2=O)c1` (centres undefined), in the data set on HOS-TE85, the IC50 was more than 1 µM.
